system: cancer cells; assay: MTT cytotoxic assay of esterification products (Cytotoxicity activity); assay type: cell-based, human; details: esterification products isolated with HPLC; graded strong / moderate / weak
Procedure, shortened: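 Cytotoxicity was read by MTT (Carmichael method, modified), with cells seeded 24 h ahead of treatment. Sixteen human cancer lines spanning bone, lung, bladder, ovary, colon, pancreas, prostate, skin, mouth, kidney, breast, liver, brain, leukemia and cervix were used. Test samples were acyl chloride esterification products of triterpenes, as mixtures or HPLC-purified compounds.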

Row | SMILES | Cytotoxicity activity
1 | CC=C(C)C(=O)OCC1(C)C(OC(=O)C=Cc2ccccc2)CCC2(C)C1CCC1(C)C2CC=C2C3CC(C)(C)C(OC(=O)C=Cc4ccccc4)C(O)C3(COC(=O)C(C)=CC)C(O)CC21C (stereo not drawn) [Tig—R—Cin—5] | weak
2 | CC=C(C)C(=O)OCC1(C)C(OC(=O)C=Cc2ccccc2)CCC2(C)C1CCC1(C)C2CC=C2C3CC(C)(C)C(O)C(OC(=O)C=Cc4ccccc4)C3(COC(=O)C(C)=CC)C(O)CC21C (stereo not drawn) [Tig—R—Cin—6] | weak
3 | CC=CC(=O)OC1C(OC(=O)C=CC)C2(COC(=O)C(C)=CC)C(O)CC3(C)C(=CCC4C5(C)CCC(O)C(C)(COC(=O)C(C)=CC)C5CCC43C)C2CC1(C)C (stereo not drawn) [Tig—R—Cro—1] | weak
4 | CC=CC(=O)OC1C(O)C2(COC(=O)C(C)=CC)C(O)CC3(C)C(=CCC4C5(C)CCC(O)C(C)(COC(=O)C(C)=CC)C5CCC43C)C2CC1(C)C (stereo not drawn) [Tig—R—Cro—2] | moderate
5 | CC=CC(=O)OC1C(O)C(C)(C)CC2C3=CCC4C5(C)CCC(O)C(C)(COC(=O)C(C)=CC)C5CCC4(C)C3(C)CC(O)C21COC(=O)C(C)=CC (stereo not drawn) [Tig—R—Cro—3] | moderate
6 | CC=CC(=O)OC1CCC2(C)C(CCC3(C)C2CC=C2C4CC(C)(C)C(O)C(O)C4(COC(=O)C(C)=CC)C(O)CC23C)C1(C)COC(=O)C(C)=CC (stereo not drawn) [Tig—R—Cro—4] | moderate
7 | CC=CC(=O)OC1C(O)C2(COC(=O)C(C)=CC)C(O)CC3(C)C(=CCC4C5(C)CCC(OC(=O)C=CC)C(C)(COC(=O)C(C)=CC)C5CCC43C)C2CC1(C)C (stereo not drawn) [Tig—R—Cro—5] | weak
8 | CC=CC(=O)OC1CCC2(C)C(CCC3(C)C2CC=C2C4CC(C)(C)C(O)C(OC(=O)C=CC)C4(COC(=O)C(C)=CC)C(O)CC23C)C1(C)COC(=O)C(C)=CC (stereo not drawn) [Tig—R—Cro—6] | weak
9 | CC=C(C)C(=O)OCC1(C)C(O)CCC2(C)C1CCC1(C)C2CC=C2C3CC(C)(C)C(OC(=O)C(CC)CC)C(OC(=O)C(CC)CC)C3(COC(=O)C(C)=CC)C(O)CC21C (stereo not drawn) [Tig—R—Eth—1] | weak
10 | CC=C(C)C(=O)OCC1(C)C(O)CCC2(C)C1CCC1(C)C2CC=C2C3CC(C)(C)C(OC(=O)C(CC)CC)C(O)C3(COC(=O)C(C)=CC)C(O)CC21C (stereo not drawn) [Tig—R—Eth—2] | moderate
11 | CC=C(C)C(=O)OCC1(C)C(O)CCC2(C)C1CCC1(C)C2CC=C2C3CC(C)(C)C(O)C(OC(=O)C(CC)CC)C3(COC(=O)C(C)=CC)C(O)CC21C (stereo not drawn) [Tig—R—Eth—3] | moderate
12 | CC=C(C)C(=O)OCC1(C)C(OC(=O)C(CC)CC)CCC2(C)C1CCC1(C)C2CC=C2C3CC(C)(C)C(O)C(O)C3(COC(=O)C(C)=CC)C(O)CC21C (stereo not drawn) [Tig—R—Eth—4] | moderate
13 | CC=C(C)C(=O)OCC1(C)C(OC(=O)C(CC)CC)CCC2(C)C1CCC1(C)C2CC=C2C3CC(C)(C)C(OC(=O)C(CC)CC)C(O)C3(COC(=O)C(C)=CC)C(O)CC21C (stereo not drawn) [Tig—R—Eth—5] | weak
14 | CC=C(C)C(=O)OCC1(C)C(OC(=O)C(CC)CC)CCC2(C)C1CCC1(C)C2CC=C2C3CC(C)(C)C(O)C(OC(=O)C(CC)CC)C3(COC(=O)C(C)=CC)C(O)CC21C (stereo not drawn) [Tig—R—Eth—6] | weak
15 | CC=C(C)C(=O)OCC1(C)C(O)CCC2(C)C1CCC1(C)C2CC=C2C3CC(C)(C)C(OC(=O)CCCCC)C(OC(=O)CCCCC)C3(COC(=O)C(C)=CC)C(O)CC21C (stereo not drawn) [Tig—R—Hex—1] | weak
16 | CC=C(C)C(=O)OCC1(C)C(O)CCC2(C)C1CCC1(C)C2CC=C2C3CC(C)(C)C(OC(=O)CCCCC)C(O)C3(COC(=O)C(C)=CC)C(O)CC21C (stereo not drawn) [Tig—R—Hex—2] | moderate
17 | CC=C(C)C(=O)OCC1(C)C(O)CCC2(C)C1CCC1(C)C2CC=C2C3CC(C)(C)C(O)C(OC(=O)CCCCC)C3(COC(=O)C(C)=CC)C(O)CC21C (stereo not drawn) [Tig—R—Hex—3] | moderate
18 | CC=C(C)C(=O)OCC1(C)C(OC(=O)CCCCC)CCC2(C)C1CCC1(C)C2CC=C2C3CC(C)(C)C(O)C(O)C3(COC(=O)C(C)=CC)C(O)CC21C (stereo not drawn) [Tig—R—Hex—4] | moderate
19 | CC=C(C)C(=O)OCC1(C)C(OC(=O)CCCCC)CCC2(C)C1CCC1(C)C2CC=C2C3CC(C)(C)C(OC(=O)CCCCC)C(O)C3(COC(=O)C(C)=CC)C(O)CC21C (stereo not drawn) [Tig—R—Hex—5] | weak
20 | CC=C(C)C(=O)OCC1(C)C(OC(=O)CCCCC)CCC2(C)C1CCC1(C)C2CC=C2C3CC(C)(C)C(O)C(OC(=O)CCCCC)C3(COC(=O)C(C)=CC)C(O)CC21C (stereo not drawn) [Tig—R—Hex—6] | weak
21 | C=CCCC(=O)OC1C(OC(=O)CCC=C)C2(COC(=O)C(C)=CC)C(O)CC3(C)C(=CCC4C5(C)CCC(O)C(C)(COC(=O)C(C)=CC)C5CCC43C)C2CC1(C)C (stereo not drawn) [Tig—R—Pen—1] | weak
22 | C=CCCC(=O)OC1C(O)C2(COC(=O)C(C)=CC)C(O)CC3(C)C(=CCC4C5(C)CCC(O)C(C)(COC(=O)C(C)=CC)C5CCC43C)C2CC1(C)C (stereo not drawn) [Tig—R—Pen—2] | moderate
23 | C=CCCC(=O)OC1C(O)C(C)(C)CC2C3=CCC4C5(C)CCC(O)C(C)(COC(=O)C(C)=CC)C5CCC4(C)C3(C)CC(O)C21COC(=O)C(C)=CC (stereo not drawn) [Tig—R—Pen—3] | moderate
24 | C=CCCC(=O)OC1CCC2(C)C(CCC3(C)C2CC=C2C4CC(C)(C)C(O)C(O)C4(COC(=O)C(C)=CC)C(O)CC23C)C1(C)COC(=O)C(C)=CC (stereo not drawn) [Tig—R—Pen—4] | moderate
25 | CC=C(C)C(=O)OCC1(C)C(O)CCC2(C)C1CCC1(C)C2CC=C2C3CC(C)(C)C(OC(=O)C=C(C)C)C(OC(=O)C=C(C)C)C3(COC(=O)C(C)=CC)C(O)CC21C (stereo not drawn) [Tig—R—Sen—1] | weak
26 | CC=C(C)C(=O)OCC1(C)C(O)CCC2(C)C1CCC1(C)C2CC=C2C3CC(C)(C)C(OC(=O)C=C(C)C)C(O)C3(COC(=O)C(C)=CC)C(O)CC21C (stereo not drawn) [Tig—R—Sen—2] | moderate
27 | CC=C(C)C(=O)OCC1(C)C(O)CCC2(C)C1CCC1(C)C2CC=C2C3CC(C)(C)C(O)C(OC(=O)C=C(C)C)C3(COC(=O)C(C)=CC)C(O)CC21C (stereo not drawn) [Tig—R—Sen—3] | moderate
28 | CC=C(C)C(=O)OCC1(C)C(OC(=O)C=C(C)C)CCC2(C)C1CCC1(C)C2CC=C2C3CC(C)(C)C(O)C(O)C3(COC(=O)C(C)=CC)C(O)CC21C (stereo not drawn) [Tig—R—Sen—4] | moderate
29 | CC=C(C)C(=O)OCC1(C)C(OC(=O)C=C(C)C)CCC2(C)C1CCC1(C)C2CC=C2C3CC(C)(C)C(OC(=O)C=C(C)C)C(O)C3(COC(=O)C(C)=CC)C(O)CC21C (stereo not drawn) [Tig—R—Sen—5] | weak
30 | CC=C(C)C(=O)OCC1(C)C(OC(=O)C=C(C)C)CCC2(C)C1CCC1(C)C2CC=C2C3CC(C)(C)C(O)C(OC(=O)C=C(C)C)C3(COC(=O)C(C)=CC)C(O)CC21C (stereo not drawn) [Tig—R—Sen—6] | weak

same assay, conditions: esterification products of E4A—Tig—N with senecioyl chloride

Row | SMILES | Cytotoxicity activity
31 | CC=C(C)C(=O)OCC1(C)C(O)CCC2(C)C1CCC1(C)C2CC=C2C3CC(C)(C)C(OC(=O)C=C(C)C)C(O)C3(COC(=O)C=C(C)C)C(O)CC21C (stereo not drawn) [Tig—Sen—2] | moderate
32 | CC=C(C)C(=O)OCC1(C)C(O)CCC2(C)C1CCC1(C)C2CC=C2C3CC(C)(C)C(O)C(OC(=O)C=C(C)C)C3(COC(=O)C=C(C)C)C(O)CC21C (stereo not drawn) [Tig—Sen—3] | moderate
33 | CC=C(C)C(=O)OCC1(C)C(OC(=O)C=C(C)C)CCC2(C)C1CCC1(C)C2CC=C2C3CC(C)(C)C(O)C(O)C3(COC(=O)C=C(C)C)C(O)CC21C (stereo not drawn) [Tig—Sen—4] | moderate
34 | CC=C(C)C(=O)OCC1(C)C(O)CCC2(C)C1CCC1(C)C2CC=C2C3CC(C)(C)C(OC(=O)C=C(C)C)C(O)C3(CO)C(O)CC21C (stereo not drawn) [Tig—Sen—5] | moderate
35 | CC=C(C)C(=O)OCC1(C)C(O)CCC2(C)C1CCC1(C)C2CC=C2C3CC(C)(C)C(O)C(OC(=O)C=C(C)C)C3(CO)C(O)CC21C (stereo not drawn) [Tig—Sen—6] | moderate

system: cancer cells; assay: Inhibition of cancer growth, cancer invasion, cell invasion or cancer cell invasion; assay type: cell-based; details: not given
From the text: The program is based on our purification methods and biological assays including the MTT assay. See International Application No. PCT/US05/31900, filed Sep. 7, 2005, U.S. Serial No. 11/289,142, filed Nov. 28, 2005, and U.S. Serial No. 11/131551, filed May 17, 2005, and PCT/US2008/002086, 1188-ALA-PCT, filed Feb. 15, 2008, 12/344,682, 1020-B1-US, filed Dec. 29, 2008. The details of Analysis of gene expression of ES2 cells after Y-treatment by Microarray, Data Analysis Methods and Western blot in PCT/US2008/002086, 1188-ALA-PCT, filed Feb. 15, 2008, and the cell invasion experiments methods in International Application PCT/US2010/0042240, filed Jul. 16, 2010.

Row | SMILES | inhibiting cancer growth, cancer invasion, cell invasion or cancer cell invasion | anti-cancer activity
36 | CC1O[C@@H](OC2[C@H](OC3[C@H](O[C@H]4C(O[C@@H]5OC(CO)[C@H](O)[C@@H](O)C5O)[C@H](O[C@H]5CC[C@@]6(C)C(CC[C@]7(C)C6CC[C@]68O[C@H](O)[C@]9(C6CC(C)(C)[C@@H](O)[C@@H]9O)[C@H](O)C[C@]87C)C5(C)C)OC(C(=O)O)[C@H]4O)OC(CO)[C@H](O)[C@H]3O)OC(C)[C@H](O)[C@@H]2O)C(O)[C@@H](O)[C@H]1O (stereo partly drawn) [AKOH-M10] | do not show the ability | –
37 | CC1(C)CC2C3=CCC4[C@@]5(C)CC[C@H](O[C@@H]6OC(C(=O)O)[C@@H](O)[C@@H](O[C@@H]7O[C@@H](CO)[C@@H](O)C7O)C6O[C@@H]6OC(CO)[C@H](O)[C@@H](O)C6O)C(C)(C)C5CC[C@@]4(C)[C@]3(C)[C@@H](O)[C@@H](O)[C@@]2(CO)[C@@H](O)[C@@H]1O (stereo partly drawn) [AKOH] | no effect | no anti-cancer activity
38 | CC1(C)CC2C3=CCC4C5(C)CCC(O)C(C)(CO)C5CCC4(C)C3(C)C(O)C(O)C2(CO)C(O)C1O (stereo not drawn) [Compound E4AY2] | – | no anti-cancer activity
39 | CC1(C)CC2C3=CCC4C5(C)CCC(O)C(C)(C)C5CCC4(C)C3(C)CC(O)C2(CO)C(O)C1O (stereo not drawn) [Compound E5A] | no effect | no anti-cancer activity

same assay, conditions: listed as AKOH-Y

Row | SMILES | inhibiting cancer growth, cancer invasion, cell invasion or cancer cell invasion
40 | CC1(C)CC2C3=CCC4[C@@]5(C)CC[C@H](O[C@@H]6OC(C(=O)O)[C@@H](O)[C@@H](O[C@@H]7O[C@@H](CO)[C@@H](O)C7O)C6O[C@@H]6OC(CO)[C@H](O)[C@@H](O)C6O)C(C)(C)C5CC[C@@]4(C)[C@]3(C)[C@@H](O)[C@@H](O)[C@@]2(CO)[C@@H](O)[C@@H]1O (stereo partly drawn) [AKOH] | do not show the ability

system: Erythrocytes (RBC); assay: The haemolytic assay; details: in words, no concentration given

Row | SMILES | hemolytic activity
41 | CC1(C)CC2C3=CCC4[C@@]5(C)CC[C@H](O[C@@H]6OC(C(=O)O)[C@@H](O)[C@@H](O[C@@H]7O[C@@H](CO)[C@@H](O)C7O)C6O[C@@H]6OC(CO)[C@H](O)[C@@H](O)C6O)C(C)(C)C5CC[C@@]4(C)[C@]3(C)[C@@H](O)[C@@H](O)[C@@]2(CO)[C@@H](O)[C@@H]1O (stereo partly drawn) [AKOH] | no hemolytic activity
42 | CC1(C)CC2C3=CCC4C5(C)CCC(O)C(C)(CO)C5CCC4(C)C3(C)C(O)C(O)C2(CO)C(O)C1O (stereo not drawn) [Compound E4AY2] | no hemolytic activity
43 | CC1(C)CC2C3=CCC4C5(C)CCC(O)C(C)(C)C5CCC4(C)C3(C)CC(O)C2(CO)C(O)C1O (stereo not drawn) [Compound E5A] | no hemolytic activity

Reference: patent US20230340012A1, “NATURAL AND SYNTHETIC COMPOUNDS FOR TREATING CANCER AND OTHER DISEASES” (PACIFIC ARROW LIMITED, priority 2009, published 2023)
